What was measured:
[1] = tested on: bedstraw; assay: Test B pre/postemergence bedstraw; format: in vivo, Galium aparine
Outline: (§1)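 Response is a visual 0-to-10 score relative to untreated plants, where 0 means no effect and 10 means complete control, taken twelve to sixteen days after application. Treatments went onto soil at planting and onto foliage of 1- to 4-leaf plants, using a surfactant-containing non-phytotoxic solvent.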

[2] = tested on: cocklebur; assay: Test B pre/postemergence cocklebur; format: in vivo, Xanthium strumarium
Outline: as §1

[3] = tested on: corn; assay: Test B pre/postemergence corn; format: in vivo, Zea mays
Outline: as §1

[4] = tested on: crabgrass; assay: Test B pre/postemergence crabgrass; format: in vivo, Digitaria sanguinalis
Outline: as §1

[5] = tested on: giant foxtail; assay: Test B pre/postemergence giant foxtail; format: in vivo, Setaria faberii
Outline: as §1

[6] = tested on: morningglory; assay: Test B pre/postemergence morningglory; format: in vivo, Ipomoea hederacea
Outline: as §1

[7] = tested on: pigweed; assay: Test B pre/postemergence pigweed; format: in vivo, Amaranthus retroflexus
Outline: as §1

[8] = tested on: rape; assay: Test B pre/postemergence rape; format: in vivo, Brassica napus
Outline: as §1

[9] = tested on: soybean; assay: Test B pre/postemergence soybean; format: in vivo, Glycine max
Outline: as §1

[10] = tested on: velvetleaf; assay: Test B pre/postemergence velvetleaf; format: in vivo, Abutilon theophrasti
Outline: as §1

[11] = tested on: wheat; assay: Test B pre/postemergence wheat; format: in vivo, Triticum aestivum
Outline: as §1

[12] = tested on: wild oat; assay: Test B pre/postemergence wild oat; format: in vivo, Avena fatua
Outline: as §1

[13] = tested on: purple nutsedge; assay: Test B pre/postemergence purple nutsedge; format: in vivo, Cyperus rotundus
Outline: as §1

[14] = tested on: rice; assay: Test B flood test rice; format: in vivo, Oryza sativa
Outline: (§2)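 Plants were grown to the 2-leaf stage before treatment with test chemical, then held in a greenhouse for twelve to sixteen days. Injury was visually rated against untreated controls on a 0–10 scale, where 0 is no effect and 10 is complete control.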

[15] = tested on: smallflower flatsedge; assay: Test B flood test smallflower flatsedge; format: in vivo, Cyperus difformis
Outline: as §2

[16] = tested on: duck salad; assay: Test B flood test duck salad; format: in vivo, Heteranthera limosa
Outline: as §2

[17] = Postemergence, Rate 125 g/ha, scale of 0 to 10 where 0 is no effect and 10 is complete control
[18] = Preemergence, Rate 62 g/ha, scale 0 to 10 (0 no effect, 10 complete control)
[19] = Preemergence, Rate 125 g/ha, 0 is no effect, 10 is complete control
[20] = Preemergence, Rate 250 g/ha, scale 0 to 10, 0 is no effect, 10 is complete control
[21] = Preemergence, Rate 500 g/ha, scale 0 to 10 (0 no effect, 10 complete control)
[22] = Rate 62 g/ha, Postemergence, scale of 0 to 10 where 0 is no effect and 10 is complete control
[23] = Rate 250 g/ha, Postemergence, scale 0 to 10, 0 is no effect, 10 is complete control
[24] = Rate 500 g/ha, Postemergence, scale 0 to 10
[25] = Postemergence (flood test species), Rate 125 g/ha, scale of 0 to 10 where 0 is no effect and 10 is complete control
[26] = Rate 62 g/ha, Postemergence section, flood test species, scale of 0 to 10 where 0 is no effect and 10 is complete control
[27] = Rate 250 g/ha, Postemergence (flood test), scale 0 to 10, 0 is no effect, 10 is complete control
[28] = Rate 500 g/ha, listed under Postemergence (flood test species), scale 0 to 10

CC(C)N(C(=O)n1oc(=O)n(Cc2ccccc2Cl)c1=O)C1=CCCCC1 [Compound 145]
Bedstraw plant response rating [1, 17]: 2
Bedstraw plant response rating [1, 18]: 0
Bedstraw plant response rating (0 to 10 scale) [1, 19]: 0
Bedstraw plant response rating [1, 20]: 0
Bedstraw plant response rating [1, 21]: 4
Bedstraw plant response rating [1, 22]: 0
Plant response rating, Bedstraw [1, 23]: 3
Bedstraw plant response rating ([1]; Rate 500 g/ha, Postemergence, scale 0 to 10, 0 no effect, 10 complete control): 5
Cocklebur plant response rating [2, 17]: 0
Cocklebur plant response rating [2, 18]: 0
Cocklebur plant response rating (0 to 10 scale) [2, 19]: 0
Cocklebur plant response rating [2, 20]: 0
Cocklebur plant response rating [2, 21]: 0
Cocklebur plant response rating [2, 22]: 0
Plant response rating, Cocklebur [2, 23]: 0
Cocklebur plant response rating [2, 24]: 0
Corn plant response rating [3, 17]: 0
Corn plant response rating [3, 18]: 0
Corn plant response rating (0 to 10 scale) [3, 19]: 0
Corn plant response rating [3, 20]: 0
Corn plant response rating [3, 21]: 0
Corn plant response rating [3, 22]: 0
Plant response rating, Corn [3, 23]: 0
Corn plant response rating [3, 24]: 0
Crabgrass plant response rating [4, 17]: 3
Crabgrass plant response rating [4, 18]: 0
Crabgrass plant response rating (0 to 10 scale) [4, 19]: 4
Crabgrass plant response rating [4, 20]: 4
Crabgrass plant response rating [4, 21]: 8
Crabgrass plant response rating [4, 22]: 2
Plant response rating, Crabgrass [4, 23]: 8
Crabgrass plant response rating [4, 24]: 8
Giant foxtail plant response rating [5, 17]: 0
Giant foxtail plant response rating [5, 18]: 0
Giant foxtail plant response rating (0 to 10 scale) [5, 19]: 3
Giant foxtail plant response rating [5, 20]: 5
Giant foxtail plant response rating [5, 21]: 8
Giant foxtail plant response rating [5, 22]: 0
Plant response rating, Giant foxtail [5, 23]: 2
Giant foxtail plant response rating [5, 24]: 4
Morningglory plant response rating [6, 17]: 8
Morningglory plant response rating [6, 18]: 0
Morningglory plant response rating (0 to 10 scale) [6, 19]: 0
Morningglory plant response rating [6, 20]: 0
Morningglory plant response rating [6, 21]: 1
Morningglory plant response rating [6, 22]: 6
Plant response rating, Morningglory [6, 23]: 10
Morningglory plant response rating [6, 24]: 10
Redroot pigweed plant response rating [7, 17]: 0
Redroot pigweed plant response rating [7, 18]: 0
Redroot pigweed plant response rating (0 to 10 scale) [7, 19]: 0
Redroot pigweed plant response rating [7, 20]: 2
Redroot pigweed plant response rating [7, 21]: 4
Redroot pigweed plant response rating [7, 22]: 0
Plant response rating, Redroot pigweed [7, 23]: 0
Redroot pigweed plant response rating [7, 24]: 2
Rape plant response rating [8, 17]: 2
Rape plant response rating [8, 18]: 0
Rape plant response rating (0 to 10 scale) [8, 19]: 0
Rape plant response rating [8, 20]: 0
Rape plant response rating [8, 21]: 0
Rape plant response rating [8, 22]: 0
Plant response rating, Rape [8, 23]: 3
Rape plant response rating [8, 24]: 3
Soybean plant response rating [9, 17]: 3
Soybean plant response rating [9, 18]: 0
Soybean plant response rating (0 to 10 scale) [9, 19]: 0
Soybean plant response rating [9, 20]: 0
Soybean plant response rating [9, 21]: 0
Soybean plant response rating [9, 22]: 3
Plant response rating, Soybean [9, 23]: 4
Soybean plant response rating [9, 24]: 5
Velvetleaf plant response rating [10, 17]: 0
Velvetleaf plant response rating [10, 18]: 0
Velvetleaf plant response rating (0 to 10 scale) [10, 19]: 0
Velvetleaf plant response rating [10, 20]: 0
Velvetleaf plant response rating [10, 21]: 5
Velvetleaf plant response rating [10, 22]: 0
Plant response rating, Velvetleaf [10, 23]: 0
Velvetleaf plant response rating [10, 24]: 2
Wheat plant response rating [11, 17]: 0
Wheat plant response rating [11, 18]: 0
Wheat plant response rating (0 to 10 scale) [11, 19]: 0
Wheat plant response rating [11, 20]: 0
Wheat plant response rating [11, 21]: 0
Wheat plant response rating [11, 22]: 0
Plant response rating, Wheat [11, 23]: 0
Wheat plant response rating [11, 24]: 0
Wild oats plant response rating [12, 17]: 0
Wild oats plant response rating [12, 18]: 0
Wild oats plant response rating (0 to 10 scale) [12, 19]: 0
Wild oats plant response rating [12, 20]: 0
Wild oats plant response rating [12, 21]: 3
Wild oats plant response rating [12, 22]: 0
Plant response rating, Wild oats [12, 23]: 0
Wild oats plant response rating [12, 24]: 2
Nutsedge plant response rating [13, 17]: 0
Nutsedge plant response rating [13, 18]: 0
Nutsedge plant response rating (0 to 10 scale) [13, 19]: 0
Nutsedge plant response rating [13, 20]: 0
Nutsedge plant response rating [13, 21]: 0
Nutsedge plant response rating [13, 22]: 0
Plant response rating, Nutsedge [13, 23]: 0
Nutsedge plant response rating [13, 24]: 0
Rice plant response rating [14, 25]: 0
Rice plant response rating [14, 26]: 0
Plant response rating, Rice [14, 27]: 0
Rice plant response rating [14, 28]: 0
S. Flatsedge plant response rating [15, 25]: 0
S. Flatsedge plant response rating [15, 26]: 0
Plant response rating, S. Flatsedge [15, 27]: 5
S. Flatsedge plant response rating [15, 28]: 8
Ducksalad plant response rating [16, 25]: 0
Ducksalad plant response rating [16, 26]: 0
Plant response rating, Ducksalad [16, 27]: 0
Ducksalad plant response rating [16, 28]: 2

— US6737383B1, “Herbicidal oxadiazolidines” (priority 1999, dated 2004)
